Some results are limits rather than exact numbers.

Data on one molecule can be found in ChEMBL document CHEMBL4339221, “Investigating the Anticancer Activity of Isatin/Dihydropyrazole Hybrids” (ACS Med Chem Lett, 2019).

Data set [1] is described as follows: Antiproliferative activity against human NHFB cells assessed as cell growth at 10 uM incubated for 72 hrs by MTT assay relative to untreated control. The format is cell-based. The conditions noted are these: read-out: Activity.
Data set [2] is described as follows: Antiproliferative activity against human IGR-39 cells assessed as cell growth at 10 uM incubated for 72 hrs by MTT assay relative to untreated control. The format is functional. The settings on record: IGR-39, 72 h, read-out: Activity.
The test system of data set [3] is A549. Kind of data set: Antiproliferative activity against human A549 cells assessed as cell growth at 10 uM incubated for 72 hrs by MTT assay relative to untreated control. The format is functional. The conditions noted are these: A549, 72 h, read-out: Activity.
Data set [4] has as its system NCI-H1299. Kind of data set: Antiproliferative activity against human NCI-H1299 cells assessed as cell growth at 10 uM incubated for 72 hrs by MTT assay relative to untreated control. Type of data set: functional. The conditions noted are these: NCI-H1299, 72 h, read-out: Activity.
The test system of data set [5] is MCF7. Briefly: Antiproliferative activity against human MCF7 cells assessed as cell growth at 10 uM incubated for 72 hrs by MTT assay relative to untreated control. The format is functional. The conditions noted are these: MCF7, 72 h, read-out: Activity.
Data set [6] deals with U-87 MG. Kind of data set: Antiproliferative activity against human U87 cells assessed as reduction in cell growth incubated for 72 hrs by MTT assay. Type of data set: functional, cell-based, U-87MG ATCC.
For data set [7], the system named is SK-OV-3. Briefly: Antiproliferative activity against human SKOV3 cells assessed as cell growth at 10 uM incubated for 72 hrs by MTT assay relative to untreated control. Type of data set: functional. The conditions noted are these: SK-OV-3, 72 h, read-out: Activity.
Data set [8] in a line: Induction of apoptosis in human IGR-39 cells at 0.5 times antiproliferative EC50 incubated for 72 hrs by Hoechst 33342 and propidium iodide staining based inverted fluorescent microscopy relative to untreated control. The format is functional.
Data set [9] has as its system A549. Briefly: Induction of necrosis in human A549 cells at 0.5 times antiproliferative EC50 incubated for 72 hrs by Hoechst 33342 and propidium iodide staining based inverted fluorescent microscopy relative to untreated control. The format is functional.
The subject of data set [10] is BXPC-3. Briefly: Antiproliferative activity against human BxPC3 cells assessed as cell growth at 10 uM incubated for 72 hrs by MTT assay relative to untreated control. The format is functional. The settings on record: BXPC-3, 72 h, read-out: Activity.
For data set [11], the system named is A549. Briefly: Antiproliferative activity against human A549 cells assessed as reduction in cell growth incubated for 72 hrs by MTT assay. Type of data set: functional, cell-based. The settings on record: A549, 72 h.
For data set [12], the system named is U-87 MG. Kind of data set: Antiproliferative activity against human U87 cells assessed as cell growth at 10 uM incubated for 72 hrs by MTT assay relative to untreated control. The format is functional, U-87MG ATCC. The conditions noted are these: read-out: Activity.
In data set [13] the test system is U-87 MG. Briefly: Induction of necrosis in human U87 cells at 0.5 times antiproliferative EC50 incubated for 72 hrs by Hoechst 33342 and propidium iodide staining based inverted fluorescent microscopy relative to untreated control. Type of data set: functional, U-87MG ATCC.
The subject of data set [14] is NCI-H1299. Kind of data set: Antiproliferative activity against human NCI-H1299 cells assessed as reduction in cell growth incubated for 72 hrs by MTT assay. The format is functional, cell-based. The conditions noted are these: NCI-H1299, 72 h.
The subject of the next data set is MDA-MB-231. Kind of data set: Antiproliferative activity against human MDA-MB-231 cells assessed as cell growth at 10 uM incubated for 72 hrs by MTT assay relative to untreated control. The format is functional. The conditions noted are these: MDA-MB-231, 72 h, read-out: Activity.
A short description of data set [15]: Antiproliferative activity against human IGR-39 cells assessed as reduction in cell growth incubated for 72 hrs by MTT assay. The settings on record: IGR-39, 72 h. Type of data set: functional, cell-based.
Data set [16] concerns BXPC-3. Kind of data set: Antiproliferative activity against human BxPC3 cells assessed as reduction in cell growth incubated for 72 hrs by MTT assay. The format is functional, cell-based. The conditions noted are these: BXPC-3, 72 h.
Data set [17] is described as follows: Induction of necrosis in human IGR-39 cells at 0.5 times antiproliferative EC50 incubated for 72 hrs by Hoechst 33342 and propidium iodide staining based inverted fluorescent microscopy relative to untreated control. The format is functional.
The subject of data set [18] is A549. Briefly: Induction of apoptosis in human A549 cells at 0.5 times antiproliferative EC50 incubated for 72 hrs by Hoechst 33342 and propidium iodide staining based inverted fluorescent microscopy relative to untreated control. The format is functional.
Data set [19] has as its system MCF7. Kind of data set: Antiproliferative activity against human MCF7 cells assessed as reduction in cell growth incubated for 72 hrs by MTT assay. The format is functional, cell-based. The conditions noted are these: MCF7, 72 h.
Data set [20] has as its system BT-474. Briefly: Antiproliferative activity against human BT474 cells assessed as cell growth at 10 uM incubated for 72 hrs by MTT assay relative to untreated control. The format is functional. The conditions noted are these: BT-474, 72 h, read-out: Activity.
Data set [21] concerns SK-OV-3. Briefly: Antiproliferative activity against human SKOV3 cells assessed as reduction in cell growth incubated for 72 hrs by MTT assay. Type of data set: functional, cell-based. The settings on record: SK-OV-3, 72 h.
Data set [22] deals with BT-474. Briefly: Antiproliferative activity against human BT474 cells assessed as reduction in cell growth incubated for 72 hrs by MTT assay. Type of data set: functional, cell-based. The settings on record: BT-474, 72 h.
Data set [23] deals with U-87 MG. Briefly: Induction of apoptosis in human U87 cells at 0.5 times antiproliferative EC50 incubated for 72 hrs by Hoechst 33342 and propidium iodide staining based inverted fluorescent microscopy relative to untreated control. Type of data set: functional, U-87MG ATCC.

For the molecule `COc1ccc(C2CC(c3ccc4ccccc4c3)=NN2C2=NC(=O)/C(=C3/C(=O)Nc4ccc(Cl)cc43)S2)cc1` (centres undefined), in [1], the viability at 72 h, 10 µM came to 14.4%. In addition, the growth at 10 µM turned out to be 1.3% in [2]; 3.84% in the data set with A549 [3]; 9.76% with NCI-H1299 [4]; 3.81% in the data set on MCF7 [5]; 6.69% in the data set on SK-OV-3 [7]; 5.62% in the data set with BXPC-3 [10]. Also, the values for the growth at 10 µM in the data set with U-87 MG [12], in the data set with MDA-MB-231 and in the data set on BT-474 [20] were 1.59%, 6.87% and 24.2%, respectively. Besides, the EC50 with U-87 MG [6] was 380 nM; with A549 [11], 340 nM; in the data set with NCI-H1299 [14], 10 nM; in data set [15], 330 nM; in the data set with BXPC-3 [16] it was 60 nM; with MCF7 [19], 70 nM. The EC50 with SK-OV-3 [21] was 60 nM; in the data set on BT-474 [22], 90 nM. In addition, the Activity is on record as 13.5 - 27% in data set [8]; <1% in the data set on A549 [9]; <1% in the data set with U-87 MG [13]; <1% in data set [17]; 13.5 - 27% in the data set on A549 [18]; 13.5 - 27% with U-87 MG [23].
